# Results: PMC12152178 (Communications Medicine, 2025)
# pIC50: −log10 of the molar value. Read-outs that look alike come from different tables or passages of the source.
# Columns and labels:
# [1] = test system: D. russelii venom-induced lethality; assay: Preclinical efficacy: preincubation model of envenoming; type: in vivo, mice; details: for Percentage of survival: i.v., 24 h, n=5
# [2] = test system: murine C2C12 skeletal muscle myoblast cells; type: cell-based; details: for cytotoxicity of the inhibitor alone: 100 μM, C2C12 cells, no venom; for reduction of venom-induced cytotoxicity: GA, KL and MP venoms, SMI 0–100 μM
# [3] = test system: D. russelii venom-induced lethality; assay: Preclinical efficacy: rescue experiments; type: in vivo, mice; details: 24 h, n=5
# [4] = test system: human platelet-poor plasma, extrinsic pathway (PT); assay: Coagulation assay: prothrombin time; type: biochemical
# [5] = test system: human platelet-poor plasma, intrinsic pathway (aPTT); assay: Coagulation assay: activated partial thromboplastin time; type: biochemical
# [6] = test system: D. russelii venom proteases (SVMP); assay: Proteolytic activity of venom and its inhibition; type: biochemical, Daboia russelii; details: for pIC50: read-out: IC50 (inhibition of venom proteolytic activity)
# [7] = test system: human fibrinogen; assay: Fibrinogenolytic activity of venom and its inhibition; type: biochemical
# [8] = KA venom 2.5x LD50 preincubated with SMI 60 µg/mouse
# [9] = PB venom 2.5x LD50 preincubated with SMI 60 µg/mouse
# [10] = PB venom 2.5x LD50 preincubated with SMI 120 µg/mouse
# [11] = RJ venom 2.5x LD50 preincubated with SMI 60 µg/mouse
# [12] = TN venom 2.5x LD50 preincubated with SMI 60 µg/mouse
# [13] = WB venom 2.5x LD50 preincubated with SMI 60 µg/mouse
# [14] = TN, WB and RJ venoms, SMI 0–100 μM (each)
# [15] = MP venom 2.5x LD50 i.p., SMI 120 µg/mouse (each) i.v. at 0 min
# [16] = RJ venom, SMI 120 µg/mouse, venom alone mean 3 min
# [17] = KA and RJ venoms, SMI up to 100 µM (each)
# [18] = TN, KL, GA and MH venoms, SMI 0–100 µM, concentration-dependent
smiles,measurement,setting,value
"CCc1c(C(=O)C(N)=O)c2c(OCC(=O)O)cccc2n1Cc1ccccc1 [varespladib, Varespladib]",Percentage of survival,[1]; AP venom 2.5x LD50 preincubated 30 min with SMI 60 µg/mouse,failed to protect
same,Percentage of survival,[1]; AP venom 2.5x LD50 preincubated with SMI 120 µg/mouse,failing to prevent lethality
same,extension of survival time over venom alone,"[1]; KA and AP venoms (both), SMI 120 µg/mouse",13 x
same,mean survival time of mice,"[1]; KA and AP venoms (both), SMI 120 µg/mouse, venom alone mean 3 min",39 min
same,Percentage of survival,[1]; [8],failed to protect
same,Percentage of survival,[1]; KA venom 2.5x LD50 preincubated with SMI 120 µg/mouse,failing to prevent lethality
same,Percentage of survival,[1]; [9],failed to protect
same,Percentage of survival,[1]; PB venom 2.5x LD50 preincubated with SMI 90 µg/mouse,80%
same,Percentage of survival,[1]; [10],complete protection
same,Percentage of survival,[1]; [11],40%
same,Percentage of survival,[1]; RJ venom 2.5x LD50 preincubated with SMI 90 µg/mouse,60%
same,Percentage of survival,[1]; [12],failed to protect
same,Percentage of survival,[1]; TN venom 2.5x LD50 preincubated with SMI 90 µg/mouse,completely protected
same,Percentage of survival,[1]; [13],40%
same,cytotoxicity of the inhibitor alone,[2],Neither inhibitor exhibited cytotoxicity
same,reduction of venom-induced cytotoxicity,[2],72.88–94.85%
same,inhibition of venom-induced cytotoxicity,"[2]; MH venom 50 µg/ml, SMI 0–100 µM",88.67%
same,inhibition of venom-induced cytotoxicity,"[2]; PB venom 50 µg/ml, SMI 0–100 µM",85.32%
same,inhibition of venom-induced cytotoxicity,[2]; [14],41.20–70.51%
same,% of survival,[3]; [15],60%
same,% of survival,"[3]; PB venom 2.5x LD50 i.p., SMI 120 µg/mouse i.v. at 30 min",complete protection
same,inhibition of venom-induced PT alterations,"[4]; TN venom, 100 µM",failed to prevent coagulopathy
same,inhibition of venom-induced aPTT alterations,"[5]; TN venom, 100 µM",failed to prevent coagulopathy
"N=C(N)c1ccc2cc(OC(=O)c3ccc(N=C(N)N)cc3)ccc2c1 [nafamostat, Nafamostat]",extension of survival time over venom alone,"[1]; RJ venom, SMI 120 µg/mouse",160 x
same,mean survival time of mice (onset of lethality),[1]; [16],480 min
same,inhibition of the protease activity of D. russelii venom,"[6]; AP venom (Fig. S1), 0–100 µM",failed to inhibit
"CNC(=O)[C@@H](NC(=O)[C@H](CC(C)C)[C@H](O)C(=O)NO)C(C)(C)C [marimastat, Marimastat]",Percentage of survival,[1]; [8],sufficient to neutralise the lethal effects
same,Percentage of survival,[1]; [9],failed to protect
same,Percentage of survival,[1]; [10],complete protection
same,Percentage of survival,[1]; [11],failed to protect
same,extension of survival time over venom alone,"[1]; RJ venom, SMI 120 µg/mouse",12 x
same,mean survival time of mice (onset of lethality),[1]; [16],36 min
same,Percentage of survival,[1]; [12],failed to protect
same,Percentage of survival,[1]; TN venom 2.5x LD50 preincubated with SMI 120 µg/mouse,complete protection
same,Percentage of survival,[1]; [13],failed to protect
same,pIC50,[6]; GA (Goa) venom,5.63
same,pIC50,[6]; MP venom,5.82
same,pIC50,[6]; RJ (Rajasthan) venom,5.78
same,cytotoxicity of the inhibitor alone,[2],Neither inhibitor exhibited cytotoxicity
same,inhibition of venom-induced cytotoxicity,"[2]; AP venom 50 µg/ml, SMI 0–100 µM",94.89%
same,reduction of venom-induced cytotoxicity,[2],72.88–94.85%
same,inhibition of venom-induced cytotoxicity,[2]; [14],41.20–70.51%
same,% of survival,"[3]; KA venom 2.5x LD50 i.p., SMI 120 µg/mouse i.v. at 0 min",40%
same,% of survival,[3]; [15],40%
same,% of survival,"[3]; PB venom 2.5x LD50 i.p., SMI 120 µg/mouse i.v. at 0 min",ineffective
same,inhibition of venom-induced PT alterations,[4]; [17],ineffective
same,inhibition of venom-induced PT alterations,"[4]; MP and AP venoms, SMI up to 100 µM (each)",failed to inhibit
same,inhibition of venom-induced PT alterations,"[4]; PB and WB venoms, SMI 0–100 µM",capable of inhibiting
same,reversal of venom-induced PT alterations,[4]; [18],reversed
same,protection against venom-induced fibrinogenolysis,"[7]; PB, KA, KL, AP, GA and RJ venoms, SMI 100 µM",very effective
same,protection against venom-induced fibrinogenolysis,"[7]; TN, MH, MP and WB venoms, SMI 100 µM (each)",did not completely neutralise
same,inhibition of venom-induced aPTT alterations,"[5]; AP and MP venoms, SMI 0–100 µM",capable of inhibiting
same,inhibition of venom-induced aPTT alterations,[5]; [17],ineffective
same,inhibition of venom-induced aPTT alterations,"[5]; PB and WB venoms, SMI up to 100 µM (each)",failed to inhibit
same,reversal of venom-induced aPTT alterations,[5]; [18],reversed
